# Assays:
# [1] = tested on: Trych. Mentagr. 1st.Pastuer; test: MIC mildews, Trichophyton mentagrophytes (Table 2); format: cell-based; conditions: Sabourand broth
# Procedure: (§1) The method for evaluating the activity in vitro against bacteria, fungi and protozoa consists in introducing calculated quantities of the substance, the activity of which it is desired to test, into culture media already inoculated with a predetermined number of test germs.
# (§2) After 24 or 48 hours of incubation at 30° or 37° C., according to the micro-organism being tested, it is possible to evaluate the growth of the same in the culture broth; in this manner the minimum concentration (M.I.C.) which inhibits the growth of the micro-organisms in vitro is determined.
# (§3) Inoculation with Trichophyton mentagrophytes and Microsporum canis was effected in a ratio of 1% of the volume of medium used.
# (§4) For the fungi Sabourand broth was used as a culture medium, whilst for the protozoa Kupferberg Trichomonas broth with 5% of horse serum was used.
# mice = test: Acute oral toxicity in mice (Table 4); conditions: oral, mice, 14 days
# Procedure: The substances were administered orally to groups of 10 female mice CF1 of average weight of about 20 grams, in aqueous solution and in such way that the total volume administered would be in each case 1 ml/100 g of weight.
# Staph.Aureus Tour = test: M.I.C. in vitro, gram+ Staph. Aureus (Table 1); format: cell-based, Staphylococcus Aureus
# Procedure: as §1, §2
# (§5) In table 1 there are recorded the M.I.C. values in γ/ml of the products subject of the present invention, against certain gram+ and gram- bacterial strains, some of which are pathogenic towards human beings.
# [2] = tested on: Trich. Vaginalis ISM 66/22; test: MIC protozoa, Trichomonas vaginalis (Table 2); format: cell-based; conditions: +10% serum (head); Kupferberg Trichomonas broth with 5% of horse serum
# Procedure: as §1, §2
# (§6) Inoculation with Trichomonas vaginalis and Trichomonas foetus, obtained from cultures transplanted every other day to make them lively, was effected in a ratio of 3.5% of the volume of medium used.
# as §4
# Diplococcus Pneum. ISM = test: M.I.C. in vitro, gram+ Diplococcus Pneum. (Table 1); format: cell-based
# Procedure: as §1, §2, §5
# [3] = tested on: Streptococ. Henclyt. 0203; test: M.I.C. in vitro, gram+ Streptococ. Henclyt. (Table 1); format: cell-based
# Procedure: as §1, §2, §5
# Candida Albic. SKF 2270 = test: MIC yeasts, Candida albicans (Table 2); format: cell-based; conditions: Sabourand broth
# Procedure: as §1, §2
# (§7) Inoculation with Candida albicans or Candida pseudotropicalis was made by diluting cultures grown for 24 h at 30° C. (cellular density inoculated 10^3 /ml).
# as §4
# Esch. Coli. SKF 12140 = test: M.I.C. in vitro, gram- Esch. Coli (Table 1); format: cell-based, Escherichia Coli
# Procedure: as §1, §2, §5
# Trich. Foetus ISM 66/23 = test: MIC protozoa, Trichomonas foetus (Table 2); format: cell-based; conditions: +10% serum (head); Kupferberg Trichomonas broth with 5% of horse serum
# Procedure: as §1, §2, §6, §4
# Klens. Pneum. ISM = test: M.I.C. in vitro, gram- Klens. Pneum. (Table 1); format: cell-based
# Procedure: as §1, §2, §5
# [4] = tested on: Nicrosporum Canis ATCC 11621; test: MIC mildews, Microsporum canis (Table 2); format: cell-based; conditions: Sabourand broth
# Procedure: as §1, §2, §3, §4
# [5] = tested on: Candida Pseudotrop. ATCC 2512; test: MIC yeasts, Candida pseudotropicalis (Table 2); format: cell-based; conditions: Sabourand broth
# Procedure: as §1, §2, §7, §4
# Pseudom.Aer. ATCC 1014 = test: M.I.C. in vitro, gram- Pseudom. Aer. (Table 1); format: cell-based, Pseudomonas Aeruginosa
# Procedure: as §1, §2, §5
# Proteus Vulc. ATCC 881 = test: M.I.C. in vitro, gram- Proteus Vulc. (Table 1); format: cell-based
# Procedure: as §1, §2, §5
compound,measurement,setting,value
"CCCCCCCCCC[N+](C)(C)CCOC(=O)C12CC3CC(CC(C3)C1)C2 (single isomer, unassigned) [Example 2, n-Decyl-dimethyl-(1-adamantane-carboxy)-ethyl-ammonium chloride]",MIC,[1]; +10% serum,20 µg/mL
same,MIC,[1]; without serum,0.5 µg/mL
same,LD50,mice,1020 mg/kg
same,M.I.C.,Staph.Aureus Tour; +10% serum,5 µg/mL
same,M.I.C.,Staph.Aureus Tour; without serum,0.2 µg/mL
same,MIC,[2],20 µg/mL
same,M.I.C.,Diplococcus Pneum. ISM; +10% serum,10 µg/mL
same,M.I.C.,Diplococcus Pneum. ISM; without serum,2 µg/mL
same,M.I.C.,[3]; +10% serum,1 µg/mL
same,M.I.C.,[3]; without serum,0.2 µg/mL
same,MIC,Candida Albic. SKF 2270; +10% serum,50 µg/mL
same,MIC,Candida Albic. SKF 2270; without serum,5 µg/mL
same,M.I.C.,Esch. Coli. SKF 12140; +10% serum,100 µg/mL
same,M.I.C.,Esch. Coli. SKF 12140; without serum,10 µg/mL
same,MIC,Trich. Foetus ISM 66/23,10 µg/mL
same,M.I.C.,Klens. Pneum. ISM; +10% serum,100 µg/mL
same,M.I.C.,Klens. Pneum. ISM; without serum,20 µg/mL
same,MIC,[4]; +10% serum,20 µg/mL
same,MIC,[4]; without serum,0.5 µg/mL
same,MIC,[5]; +10% serum,50 µg/mL
same,MIC,[5]; without serum,0.5 µg/mL
same,M.I.C.,Pseudom.Aer. ATCC 1014; +10% serum,100 µg/mL
same,M.I.C.,Pseudom.Aer. ATCC 1014; without serum,50 µg/mL
same,M.I.C.,Proteus Vulc. ATCC 881; +10% serum,100 µg/mL
same,M.I.C.,Proteus Vulc. ATCC 881; without serum,20 µg/mL

# — patent US4288609A, “Quaternary ammonium derivatives of adamantane with antimicrobic activity” (priority 1976, dated 1981)
